Measurements taken from ChEMBL document CHEMBL3739321, “Multicomponent reaction-based synthesis and biological evaluation of tricyclic heterofused quinolines with multi-trypanosomatid activity” (Eur J Med Chem, 2015).

Experiments:
[1] = tested on: Leishmania infantum; assay: Potency index, ratio of potassium antimony (III) tartarate hydrate IC50 to compound IC50 for promastigote stage of Leishmania infantum MCAN/ES/92/BCN722; assay type: functional
[2] = molecular target: Leishmania infantum; assay: Leishmanicidal activity against promastigote stage of Leishmania infantum MCAN/ES/92/BCN722 after 48 hrs by acid phosphatase based assay; assay type: functional, organism-based
[3] = tested on: L6; assay: Cytotoxicity against rat L6 cells after 6 days by resazurin staining based fluorescence plate reader assay; assay type: cell-based
[4] = Selectivity index, ratio of IC50 for rat L6 cells to IC50 for promastigote stage of Leishmania infantum MCAN/ES/92/BCN722; assay type: toxicity, cell-based
[5] = tested on: Trypanosoma brucei; assay: Potency index, ratio of nifurtimox IC50 to compound IC50 for bloodstream form of Trypanosoma brucei 221; assay type: functional
[6] = tested on: Trypanosoma cruzi; assay: Potency index, ratio of benzanidazole IC50 to compound IC50 for epimastigote stage of Trypanosoma cruzi MHOM/ES/2203/BCN590; assay type: functional

Clc1ccc2nc(-c3ccco3)c3c(c2c1)OCCC3
Ratio IC50 [1]: <=5

N#Cc1ccc(-c2nc3ccc(Cl)cc3c3c2CCCCN3)cc1
Ratio IC50 [1]: <=5

N#Cc1ccc(-c2nc3ccc(Cl)cc3c3c2CCCN3)cc1
Ratio IC50 [1]: <=5

N#Cc1ccc(-c2nc3cc(Cl)ccc3c3c2CCCN3)cc1
Ratio IC50 [1]: <=5

N#Cc1ccc([C@H]2Nc3ccc(Cl)cc3[C@@H]3OCCC[C@H]23)cc1
Ratio IC50 [1]: <=5

POTASSIUM ANTIMONYL TARTRATE TRIHYDRATE
IC50 [2]: 24.3 µM | IC50 [3]: 3.27 µM | Ratio IC50 [4]: 0.1

NCc1ccc(-c2nc3ccc(Cl)cc3c3c2CCCO3)cc1
Ratio IC50 [1]: <=5 | Ratio IC50 [5]: 2

N#Cc1ccc(-c2nc3cc(Cl)ccc3cc2CCCN)cc1
Ratio IC50 [1]: <=5

NCc1ccc(-c2nc3ccc(Cl)cc3c3c2CCCCN3)cc1
Ratio IC50 [1]: <=5 | Ratio IC50 [5]: 2

NCc1ccc(-c2nc3ccc(Cl)cc3c3c2CCCN3Cc2ccccc2)cc1
Ratio IC50 [1]: <=5 | Ratio IC50 [5]: 2 | Ratio IC50 [6]: 4

OCCCc1cc2cc(Cl)ccc2nc1-c1ccco1
Ratio IC50 [1]: <=5

N#Cc1ccc(-c2nc3ccc(Cl)cc3c3c2CCCO3)cc1
Ratio IC50 [1]: <=5

CCN(CC)CCCc1cc2cc(Cl)ccc2nc1-c1cccs1
Ratio IC50 [1]: <=5

Clc1ccc2nc(-c3cccs3)c(CCCN3CCCC3)cc2c1
Ratio IC50 [1]: <=5

N#Cc1ccc(-c2nc3ccc(Cl)cc3c3c2CCN3)cc1
Ratio IC50 [1]: <=5

NCc1ccc(-c2nc3cc(Cl)ccc3c3c2CCCN3)cc1
Ratio IC50 [1]: <=5 | Ratio IC50 [5]: 2

NCc1ccc(-c2nc3ccc(Cl)cc3c3c2CCN3)cc1
Ratio IC50 [1]: <=5 | Ratio IC50 [5]: 2

NCc1ccc2nc(-c3ccc(Cl)cc3)c3c(c2c1)N(Cc1ccccc1)CCC3
Ratio IC50 [1]: <=5 | Ratio IC50 [5]: 2

NCc1ccc(-c2nc3ccc(Cl)cc3c3c2CCCN3)cc1
Ratio IC50 [1]: <=5 | Ratio IC50 [5]: 2

N#CCCc1cc2cc(Cl)ccc2nc1-c1cccs1
Ratio IC50 [1]: <=5

OCCCc1cc2cc(Cl)ccc2nc1-c1cccs1
Ratio IC50 [1]: <=5

Clc1ccc2nc(-c3cccs3)c3c(c2c1)OCCC3
Ratio IC50 [1]: <=5
